test system: recombinant NL4-3 virus (Renilla luciferase in nef, Gag P373S; NLRluc) in MT-2 cells; assay: whole plant or invertebrate; assay type: cell-based, HIV; settings: Renilla, NL43, luciferase activity in cells infected for 4-5 days with NLRluc recombinants, serial dilutions of inhibitor; class symbols (key in Table 1); read-out: EC50
Procedure, shortened: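 MT-2 cells in RPMI 1640 with 10% heat-inactivated FBS were infected with the reporter virus, made by transfecting the proviral clone into 293T cells, and cultured 4-5 days with serial inhibitor dilutions. Antiviral activity was quantified from Renilla luciferase activity measured in lysed cells.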

Compound | EC50 [µM]
C=C(C)[C@@H]1CC[C@]2(NC(=O)CCc3nccn3C)CC[C@]3(C)[C@H](CC[C@@H]4[C@@]5(C)CC=C(c6ccc(C(=O)O)cc6)C(C)(C)[C@@H]5CC[C@]43C)[C@@H]12 [Example 75, 4-((1R,3aS,5aR,5bR,7aR,11aS,11bR,13aR,13bR)-5a,5b,8,8,11a-pentamethyl-3a-(3-(1-methyl-1H-imidazol-2-yl)propanamido)-1-(prop-1-en-2-yl)-2,3,3a,4,5,5a,5b,6,7,7a,8,11,11a,11b,12,13,13a,13b-octadecahydro-1H-cyclopenta[a]chrysen-9-yl)benzoic acid] | < 0.1
C=C(C)[C@@H]1CC[C@]2(NC(=O)N3CCCCC3)CC[C@]3(C)[C@H](CC[C@@H]4[C@@]5(C)CC=C(c6ccc(C(=O)O)cc6)C(C)(C)[C@@H]5CC[C@]43C)[C@@H]12 [Example 15, 4-((1R,3aS,5aR,5bR,7aR,11aS,11bR,13aR,13bR)-5a,5b,8,8,11a-pentamethyl-3a-(piperidine-1-carboxamido)-1-(prop-1-en-2-yl)-2,3,3a,4,5,5a,5b,6,7,7a,8,11,11a,11b,12,13,13a,13b-octadecahydro-1H-cyclopenta[a]chrysen-9-yl)benzoic acid] | < 0.1
C=C(C)[C@@H]1CC[C@]2(NCCN3CCOCC3)CC[C@]3(C)[C@H](CC[C@@H]4[C@@]5(C)CC=C(c6ccc(C(=O)O)c(F)c6)C(C)(C)[C@@H]5CC[C@]43C)[C@@H]12 [Example A3, 2-fluoro-4-((1R,3aS,5aR,5bR,7aR,11aS,11bR,13aR,13bR)-5a,5b,8,8,11a-pentamethyl-3a-(2-morpholinoethylamino)-1-(prop-1-en-2-yl)-2,3,3a,4,5,5a,5b,6,7,7a,8,11,11a,11b,12,13,13a,13b-octadecahydro-1H-cyclopenta[a]chrysen-9-yl)benzoic acid] | < 0.1
CC(C)[C@@H]1CC[C@]2(NCCN3CCC(S(C)(=O)=O)CC3)CC[C@]3(C)[C@H](CC[C@@H]4[C@@]5(C)CC[C@H](c6ccc(C(=O)O)cc6)C(C)(C)[C@@H]5CC[C@]43C)[C@@H]12 [Example B18, 4-((1S,3aS,5aR,5bR,7aS,9S,11aS,11bR,13aR,13bR)-1-isopropyl-5a,5b,8,8,11a-pentamethyl-3a-((2-(4-(methylsulfonyl)piperidin-1-yl)ethyl)amino)icosahydro-1H-cyclopenta[a]chrysen-9-yl)benzoic acid] | < 0.1
C=C(C)[C@@H]1CC[C@]2(NCCN3CCN(C(C)=O)CC3)CC[C@]3(C)[C@H](CC[C@@H]4[C@@]5(C)CC=C(c6ccc(C(=O)O)cc6)C(C)(C)[C@@H]5CC[C@]43C)[C@@H]12 [Example B24, 4-((1R,3aS,5aR,5bR,7aR,11aS,11bR,13aR,13bR)-3a-((2-(4-acetylpiperazin-1-yl)ethyl)amino)-5a,5b,8,8,11a-pentamethyl-1-(prop-1-en-2-yl)-2,3,3a,4,5,5a,5b,6,7,7a,8,11,11a,11b,12,13,13a,13b-octadecahydro-1H-cyclopenta[a]chrysen-9-yl)benzoic acid] | < 0.1
C=C(C)[C@@H]1CC[C@]2(NC(=O)N(CCN3CCS(=O)(=O)CC3)CCN3CCS(=O)(=O)CC3)CC[C@]3(C)[C@H](CC[C@@H]4[C@@]5(C)CC=C(c6ccc(C(=O)O)cc6)C(C)(C)[C@@H]5CC[C@]43C)[C@@H]12 [Example 69, 4-((1R,3aS,5aR,5bR,7aR,11aS,11bR,13aR,13bR)-3a-((bis(2-(1,1-dioxido-4-thiomorpholinyl)ethyl)carbamoyl)amino)-1-isopropenyl-5a,5b,8,8,11a-pentamethyl-2,3,3a,4,5,5a,5b,6,7,7a,8,11,11a,11b,12,13,13a,13b-octadecahydro-1H-cyclopenta[a]chrysen-9-yl)benzoic acid] | < 0.1
C=C(C)[C@@H]1CC[C@]2(NCC(=O)N(C)C)CC[C@]3(C)[C@H](CC[C@@H]4[C@@]5(C)CC=C(c6ccc(C(=O)O)cc6)C(C)(C)[C@@H]5CC[C@]43C)[C@@H]12 [Example 145, 4-((1R,3aS,5aR,5bR,7aR,11aS,11bR,13aR,13bR)-3a-(2-(dimethylamino)-2-oxoethylamino)-5a,5b,8,8,11a-pentamethyl-1-(prop-1-en-2-yl)-2,3,3a,4,5,5a,5b,6,7,7a,8,11,11a,11b,12,13,13a,13b-octadecahydro-1H-cyclopenta[a]chrysen-9-yl)benzoic acid] | < 0.1
C=C(C)[C@@H]1CC[C@]2(NC(=O)NCCN(C)S(C)(=O)=O)CC[C@]3(C)[C@H](CC[C@@H]4[C@@]5(C)CC=C(c6ccc(C(=O)O)cc6)C(C)(C)[C@@H]5CC[C@]43C)[C@@H]12 [Example 50, 4-((1R,3aS,5aR,5bR,7aR,11aS,11bR,13aR,13bR)-5a,5b,8,8,11a-pentamethyl-3a-(3-(2-(N-methylmethylsulfonamido)ethyl)ureido)-1-(prop-1-en-2-yl)-2,3,3a,4,5,5a,5b,6,7,7a,8,11,11a,11b,12,13,13a,13b-octadecahydro-1H-cyclopenta[a]chrysen-9-yl)benzoic acid] | < 0.1
C=C(C)[C@@H]1CC[C@]2(NC(=O)N3CCN(CCN(C)C)CC3)CC[C@]3(C)[C@H](CC[C@@H]4[C@@]5(C)CC=C(c6ccc(C(=O)O)cc6)C(C)(C)[C@@H]5CC[C@]43C)[C@@H]12 [Example 39, 4-((1R,3aS,5aR,5bR,7aR,11aS,11bR,13aR,13bR)-3a-(4-(2-(dimethylamino)ethyl)piperazine-1-carboxamido)-5a,5b,8,8,11a-pentamethyl-1-(prop-1-en-2-yl)-2,3,3a,4,5,5a,5b,6,7,7a,8,11,11a,11b,12,13,13a,13b-octadecahydro-1H-cyclopenta[a]chrysen-9-yl)benzoic acid] | < 0.1
C=C(C)[C@@H]1CC[C@]2(NCCN3CCN(S(=O)(=O)c4ccc(C(=O)O)cc4)CC3)CC[C@]3(C)[C@H](CC[C@@H]4[C@@]5(C)CC=C(c6ccc(C(=O)O)cc6)C(C)(C)[C@@H]5CC[C@]43C)[C@@H]12 [Example B51, 4-((4-(2-(((1R,3aS,5aR,5bR,7aR,11aS,11bR,13aR,13bR)-9-(4-carboxyphenyl)-5a,5b,8,8,11a-pentamethyl-1-(prop-1-en-2-yl)-2,3,3a,4,5,5a,5b,6,7,7a,8,11,11a,11b,12,13,13a,13b-octadecahydro-1H-cyclopenta[a]chrysen-3a-yl)amino)ethyl)piperazin-1-yl)sulfonyl)benzoic acid] | < 0.1
CNC(=O)CN[C@]12CC[C@@H](C(C)C)[C@@H]1[C@H]1CC[C@@H]3[C@@]4(C)CC[C@H](c5ccc(C(=O)O)cc5)C(C)(C)[C@@H]4CC[C@@]3(C)[C@]1(C)CC2 [Example B10, 4-((1S,3aS,5aR,5bR,7aS,9S,11aS,11bR,13aR,13bR)-1-isopropyl-5a,5b,8,8,11a-pentamethyl-3a-((2-(methylamino)-2-oxoethyl)amino)icosahydro-1H-cyclopenta[a]chrysen-9-yl)benzoic acid] | < 0.1
C=C(C)[C@@H]1CC[C@]2(NCCN(CCC(=O)O)CCC(=O)O)CC[C@]3(C)[C@H](CC[C@@H]4[C@@]5(C)CC=C(c6ccc(C(=O)O)cc6)C(C)(C)[C@@H]5CC[C@]43C)[C@@H]12 [Example 141, 3,3′-(2-((1R,3aS,5aR,5bR,7aR,11aS,11bR,13aR,13bR)-9-(4-carboxyphenyl)-5a,5b,8,8,11a-pentamethyl-1-(prop-1-en-2-yl)-2,3,3a,4,5,5a,5b,6,7,7a,8,11,11a,11b,12,13,13a,13b-octadecahydro-1H-cyclopenta[a]chrysen-3a-ylamino)ethylazanediyl)dipropanoic acid] | < 0.1
C=C(C)[C@@H]1CC[C@]2(Nc3nc(C(C)(C)C)cs3)CC[C@]3(C)[C@H](CC[C@@H]4[C@@]5(C)CC=C(c6ccc(C(=O)O)cc6)C(C)(C)[C@@H]5CC[C@]43C)[C@@H]12 [Example 185, 4-((1R,3aS,5aR,5bR,7aR,11aS,11bR,13aR,13bR)-3a-(4-tert-butylthiazol-2-ylamino)-5a,5b,8,8,11a-pentamethyl-1-(prop-1-en-2-yl)-2,3,3a,4,5,5a,5b,6,7,7a,8,11,11a,11b,12,13,13a,13b-octadecahydro-1H-cyclopenta[a]chrysen-9-yl)benzoic acid] | > 0.1

same assay, conditions: Renilla, NL43, luciferase activity in cells infected for 4-5 days with NLRluc recombinants, serial dilutions of inhibitor; numeric values; read-out: EC50

Compound | EC50 [µM]
C=C(C)[C@@H]1CC[C@]2(NCC3CCCN(C(=O)OC(C)(C)C)C3)CC[C@]3(C)[C@H](CC[C@@H]4[C@@]5(C)CC=C(c6ccc(C(=O)O)cc6)C(C)(C)[C@@H]5CC[C@]43C)[C@@H]12 (stereo partly drawn) [Example 174, 4-((1R,3aS,5aR,5bR,7aR,11aS,11bR,13aR,13bR)-3a-((1-(tert-butoxycarbonyl)piperidin-3-yl)methylamino)-5a,5b,8,8,11a-pentamethyl-1-(prop-1-en-2-yl)-2,3,3a,4,5,5a,5b,6,7,7a,8,11,11a,11b,12,13,13a,13b-octadecahydro-1H-cyclopenta[a]chrysen-9-yl)benzoic acid] | 0.3
C=C(C)[C@@H]1CC[C@]2(NC(=O)N3CCCN(C)CC3)CC[C@]3(C)[C@H](CC[C@@H]4[C@@]5(C)CC=C(c6ccc(C(=O)O)cc6)C(C)(C)[C@@H]5CC[C@]43C)[C@@H]12 [Example 34, 4-((1R,3aS,5aR,5bR,7aR,11aS,11bR,13aR,13bR)-5a,5b,8,8,11a-pentamethyl-3a-(4-methyl-1,4-diazepane-1-carboxamido)-1-(prop-1-en-2-yl)-2,3,3a,4,5,5a,5b,6,7,7a,8,11,11a,11b,12,13,13a,13b-octadecahydro-1H-cyclopenta[a]chrysen-9-yl)benzoic acid] | 0.002

Source: patent US20140343000A1 (priority 2011, published 2014)
